From patent publication US20080075796A1, “Compositions and Methods for Controlling Insects” (TyraTech, Inc., priority 2003, published 2008)

Columns and labels:
control Schneider cells = assay: Intracellular Ca2+ mobilization in control Schneider cells; format: cell-based, Drosophila; conditions: FIG. 22
Experimental: Intracellular calcium ion concentrations ([Ca^2+]i) are measured by using the acetoxymethyl (AM) ester of the fluorescent indicator fura-2 (Enan, et al., Biochem. Pharmacol vol 51, 447-454). In this study, cells expressing tyramine receptor are grown under standard conditions. A cell suspension is prepared in assay buffer (140 mM NaCL, 10 mM HEPES, 10 mM glucose, 5 mM KCl, 1 mM CaCl2, 1 mM MgCl2) and cell number adjusted to about 2×10^6 cells per ml. Briefly, about 1.0 ml cell suspension (about 2×10^6 cells) is incubated with about 5 μM Fura 2/AM for about 30 min at about 28° C. After incubation, the cells are pelleted at about 3700 rpm for about 10 sec at room temperature and then resuspended in about 1.5 ml assay buffer. [Ca^2+]i changes are analyzed in spectrofluorometer in the presence and absence of test chemicals. Excitation wave lengths are about 340 nm (generated by Ca^2+-bound fura-2) and about 380 nm (corresponding to Ca^2+-free fura-2). The fluorescence intensity is monitored at an emission wave length of about 510 nm. No absorbance of fluorescence artifacts are observed with any of the compounds used. The ratio of about 340/380 nm is calculated and plotted as a function of time.
Changes in intracellular Ca^2+ levels are calculated based on the difference between the 340/380 fluorescence ratios before and after approximately 150 seconds of the treatment.

[1] = tested on: untransfected Schneider cells; assay: Response of untransfected Schneider cells to tyramine; format: binding, Drosophila; conditions: concentration as high as about 100 μM
[2] = tested on: Drosophila melanogaster tyramine receptor (TyrR), SEQ ID NO: 2; assay: Receptor-specific binding of 3H-tyramine in Schneider cells transfected with TyrR; conditions: whole cells, FIG. 1
Description: Tyramine receptor is amplified from Drosophila melanogaster head cDNA phage library GH that is obtained through the Berkeley Drosophila Genome Project (Baumann, A., 1999, Drosophila melanogaster mRNA for octopamine receptor, splice variant 1B NCBI direct submission, Accession AJ007617). The nucleic acid sequence and the peptide sequence of TyrR are set forth in SEQ ID NO: 1 and SEQ ID NO: 2, respectively. Phage DNA is purified from this library using a liquid culture lysate. (Baxter, et al., 1999, Insect Biochem Mol Biol 29, 461-467). Briefly, oligonucleotides that are used to amplify the open reading frame of the Drosophila tyramine receptor (TyrR) (Han, et al., 1998, J Neurosci 18, 3650-3658; von Nickisch-Rosenegk, et al., 1996. Insect Biochem Mol Biol 26, 817-827) consist of the 5′ oligonucleotide: 5′[…] 3′ (SEQ ID NO: 7) and 3′ oligonucleotide: 5′taatctaga[…] […]
Cells transfected with the tyramine receptor (about 1×10^6 cells/ml) are cultured in each well of a multi-well plate. […] Solubilized cells are transferred into about 4 ml Liquid Scintillation Solution (LSS) and vigorously vortexed for about 30 sec before counting the radioactivity using a Liquid Scintillation β-counter (Beckman, Model LS1801) (LSC).
With reference to FIG. 1, receptor specific binding data is expressed as fmol specific binding per 1×10^6 cells and measured as a function of ^3H-tyramine concentration. […]

[3] = tested on: head lice Pediculus humanus capitus; assay: Pesticidal effect on head lice; format: in vivo; conditions: time to kill 100% of the lice, dissolved in water
Experimental: (§1) Live adult head lice Pediculus humanus capitus are collected from female and male children between the age of about 4 and 11 living in the Karmos area, Alexandria, Egypt. The insects are collected using fine-toothed louse detector comb and pooled together. The collected lice are kept in dishes and used in the studies within about 30 minutes of their collection.
(§2) Various concentrations of the compositions being tested are prepared in water To allow the pesticidal effect of these compositions to be compared to that of a commercially available lice-killing agent, ivermectin, is dissolved in water. About 1 ml of each concentration of the compositions are applied to a dish, about 1 ml of the ivermectin solution is applied to a dish, and about 1 ml of water is applied to a control dish. About 10 adult head lice are introduced to each dish.
(§3) Treated and control dishes are kept under continuous observation and LT100 is observed. LT refers to the time required to kill a given percentage of insects; thus, LT100 refers to the time required to kill 100% of the lice. Head lice is considered dead if no response to a hard object is found.

red ants = assay: Repellent effect on red ants (visits to treated paper disk); format: in vivo; conditions: for number of trips by red ants to treated paper disk: 100%
Experimental: Repellent effect of various compositions containing plant essential oils on red ants is tested in the following manner. A paper disk is treated with about 200 μl of each composition and placed in a dish. An untreated paper disk is placed in a control dish. Also, a paper disk is treated with about 200 μl 100% DEET and placed in a dish to compare the repellant effect of the compositions to that of DEET. Red ants are introduced into each dish. Insect behavior and number of visits to the treated paper disk are monitored for about 5 minutes. The number of visits by a red ant to the paper disk is recorded.
Residuality, with regard to pesticidal effect and repellent effect, is tested by treating a paper disk with the composition being tested, keeping the treated paper disk under laboratory conditions for a predetermined period of time (e.g., 0 min, 6 hours, 1 day, 3 days, 5 days, 7 days), and exposing red ants to the treated paper disk in the above described manners.

Carpenter ants [4] = assay: Repellent effect on carpenter ants (treated filter paper); format: in vivo
Experimental: (§4) Adult insect are randomly selected for testing the repellent effect of compositions and are not individually marked. About 5 insects per replicate are used. About 3 replicates are used for each treatment. Untreated control tests are included with only solvent (acetone) application to an equal sized population/replications, held under identical conditions. A filter paper (about 80 cm^2) is treated with the composition (about 100 mg in […] acetone). After about 3 min of air drying, the filter paper is placed in a dish and repellency against insects is performed. Insects are released to the dish, one insect at a time at the far end of the dish. Using one or more stopwatches, the time spent on either the filter paper or the untreated surface of the dish is recorded up to about 300 seconds. Repellency ratio (RR) is calculated as follows: RR=[(time on control surface−time on treated surface)/total time of test]. If RR>0 then the composition is considered to have a repellant effect, that is to say, an effect, wherein more insects are repelled away from treated surface than the control surface; if RR<0 then the composition is considered not to have a repellant effect.
(§5) The repellent effect of various plant essential oils is tested by treating a filter paper with the test oils. After about five minutes at room temperature, the paper is placed in a dish and ants are introduced one at a time. The repellency is determined as described above, in Example 14. Oils are tested alone. Additionally, oils are mixed to form compositions, which are then tested.
For purposes of comparison to the repellent effect of various compositions made of various plant essential oils, the repellency of an insect control agent, the commercial repellent 29% DEET, which may be purchased under the name, REPEL® (Wisconsin Pharmacal Company, Inc, Jackson, Wyo.), is measured against Carpenter ants by treating a filter paper with the 29% DEET. After about five minutes at room temperature, the paper is placed in a dish and ants are introduced one at a time. The repellency is determined as described above, in Example 14.
as §5, with “of commercial repellent DEET and” for “of”

Carpenter ants [5] = assay: as above; format: in vivo; conditions: DEET in concentrations of about 5 to 10%
Experimental: as §4
The repellent effect of various plant essential oils is tested by treating a filter paper with the test oils. […] The repellency is determined as described above, in Example 14. […]

[6] = tested on: head lice Pediculus humanus capitus; assay: Pesticidal effect on head lice (LT100); format: in vivo; conditions: about 1 ml in dish, about 10 adult head lice
Experimental: as §1, §2, §3

NCCc1ccc(O)cc1 [Tyramine, tyramine]
mobilization of Ca2+ in control cells (control Schneider cells): induce mobilization of Ca^2+ | response of untransfected cells [1]: do not respond | 3H-tyramine concentration at which maximum specific binding occurs [2]: about 5 nM

ivermectin [listing 1 of 2 here]
LT100 [3]: 5 min

CCN(CC)C(=O)c1cccc(C)c1 [DEET]
number of trips by the red ants to the treated paper disks (red ants; 0 min after treatment of disk): 0 | residuality of repellent effect (red ants; 100% DEET, in words): begins to loose potency after 1 day | number of trips by red ants to treated paper disk (red ants; 0 min after treatment, about 5 minutes observation): 0 | number of trips by red ants to treated paper disk (red ants; 6 hours after treatment): 0 | number of trips by red ants to treated paper disk (red ants; 1 day after treatment): 1 | number of trips by red ants to treated paper disk (red ants; 3 days after treatment): 2 | number of trips by red ants to treated paper disk (red ants; 5 days after treatment): 2 | number of trips by red ants to treated paper disk (red ants; 7 days after treatment): 2 | number of trips by the red ants to the treated paper disks (red ants; 6 hours after treatment of disk): 0 | number of trips by the red ants to the treated paper disks (red ants; 1 day after treatment of disk): 1 | number of trips by the red ants to the treated paper disks (red ants; 3 days after treatment of disk): 2 | number of trips by the red ants to the treated paper disks (red ants; 5 days after treatment of disk): 2 | number of trips by the red ants to the treated paper disks (red ants; 7 days after treatment of disk): 2 | Sec on T (Carpenter ants [4]; 5% DEET, Day 0): 282 (10) Sec | Sec on T (Carpenter ants [4]; 10% DEET, Day 0): 260 (6) Sec | sec. on T surface (Carpenter ants [4]; 29% DEET (REPEL), Day 0): 02.4 s | repellency (Carpenter ants [4]; DEET about 5 to 10%, in words): no signs of repellency | repellency (Carpenter ants [5]): no signs of repellency

ivermectin [listing 2 of 2 here]
LT100 (time required to kill 100% of the lice) [6]: 5 min
